We go through 8 compounds from patent publication US20070010548A1, “Compounds having inhibitive activity of phosphatidylinositol 3-kinase and methods of use thereof” (ZENTARIS GmbH, priority 2003, published 2007).

Where two headings read alike, the source gives them in different places.

One assay deals with OVCAR3 cells. As to the kind of experiment: MTT cell proliferation/viability assay, OVCAR3 ovarian cancer cells. The assay is classed as cell-based. The settings on record: Homo sapiens. The protocol:
(§1) The ovarian cancer cell line SKOV3 is not altered in PI 3-K signaling and should be less sensitive to the anti-proliferative effects produced by treatment with PI 3-K inhibitors, while the OVCAR3 cell line, which is altered in PI 3-K signaling, via amplification of PI 3-K activity, should be sensitive. SKOV3 cells were seeded in 96-well cell culture plates (Greiner) at a density of 20,000 cells per well in McCoys 5A media (GibcoBRL) with 10% fetal calf serum and 20 mM L-glutamine. OVCAR3 cells were seeded at a density of 15,000 cells per well in RPMI 1640 media (GibcoBRL) containing 20 mM 1-glutamine, 0.01 ng/ml bovine insulin, 10 mM Hepes pH 7.4, 1 mM sodium pyruvate, 2.5 g/L glucose, and 20% fetal calf serum. After 24 hours, compounds were added to cell media to a final concentration of 1 μM, and the cells were grown in the presence of the compounds for 48 hours, in media containing 0.5% fetal calf serum. Viability was determined using a MTT cell proliferation assay (R and D Systems) and comparison to DMSO alone controls (100% viability). Compounds which result in reduced viability may act either by inhibiting cell proliferation or by inducing apoptosis (programmed cell death).
(§2) Many of these also show similar selective effects on cell growth. Table 2 summarizes the results of two separate cell proliferation experiments for selected compounds of the present invention.

The subject of the next assay is SKOV3 cells. As to the kind of experiment: MTT cell proliferation/viability assay, SKOV3 ovarian cancer cells. The assay is classed as cell-based. The settings on record: Homo sapiens. The protocol: as §1, §2
Assay [1] concerns tumor cells altered in PI 3-K/PTEN. Briefly: Cellular growth inhibition assays on tumor cells altered in PI 3-K/PTEN. The assay is classed as cell-based. Conditions: for IC50: approximate, read-out: Approx. mIC50 in cellular assays. As for the experimental part:
as §1
Selected compounds were evaluated against paired ovarian cancer cell lines at a range of concentrations to determine effective concentrations for growth inhibition.
MDA-MB-468 and MDA-MB-231 cells were seeded in 96-well cell culture plates (Greiner) at a density of 20,000 cells per well in RMPI media (GibcoBRL) with 10% fetal calf serum and 20 mM L-glutamine. After 24 hours, compounds were added to cell media to a final concentrations ranging from 10 nM to 100 μM, and the cells were grown in the presence of the compounds for 48 hours in RMPI media containing 0.5% fetal calf serum and 20 mM L-glutamine. Viability was determined using a MTT cell proliferation assay (R and D Systems) and comparison to DMSO alone controls (100% viability). Compounds which result in reduced viability may act either by inhibiting cell proliferation or by inducing apoptosis (programmed cell death). […] Selected compounds were evaluated against the paired breast cancer cell lines at a range of concentrations to determine effective concentrations for growth inhibition.
Table 3 summarizes the data for several compounds of this structural group, including the IC50 for inhibition of enzyme activity in vitro, cellular mIC50 and anti-proliferative activity against tumor cells altered in PI 3-K mediated signaling, and effects on cellular levels of phospho-Akt.

The next assay has as its system PI 3-K. Conditions: background literature; read-out: IC50 (inhibits PI 3-K); cited from earlier work.
A further assay concerns MA-MB-468 cells. As to the kind of experiment: Three dimensional matrix model of tumor cell growth. Conditions: Homo sapiens, read-out: Percent Inhibition of Tumor Cell Viability. The assay is classed as cell-based. The protocol: PI 3-K inhibitors are assayed for effects on tumor cells grown in three-dimensional matrix that more closely mimics the environment of a tumor than other cell culture models. MA-MB-468 cells are mixed in a matrix solution, such as Matrigel (13D Biosciences) at 2×10 ^6 cells/ml and 100 μl of this mixture added to each well of a 24 well cell culture plate. Each well is 6.5 mm in diameter and 2×10^5 cells are added per well. Once the matrix is solidified, RMPI media containing 10% fetal calf serum and 2 mM L-glutamine is added to each well. After approximately 14 days of culture, the compounds are added to cell media at final concentrations ranging from 10 nM to 100 μM, and the cells are grown in the presence of the compounds for 7 days in RMPI media containing 0.5% fetal calf serum and 20 mM L-glutamine.
Following this treatment, cell growth in the three dimensional matrix can be measured using a cell viability assay such as the CellTiter 96 One Solution Cell Proliferation Assay (Promega, G3582). […] of assay solution is added per well, the cells are incubated for 3 hours. Absorbance at 550 nm is determined for each well and used directly as being equivalent of cell number. In addition, live and dead cells can be distinguished and observed using fluorescence microscopy after staining with Fluorescein diacetate (Sigma), which labels live cells, and propidium iodide (Sigma), which labels dead cells.
The PI 3-K inhibitors of the present invention show anti-proliferative effects in this model of tumor cell growth, as shown by the representative data in Table 6, which compares the anti-proliferative effects of one inhibitor compared to the effects of the benchmark PI 3-K inhibitor LY294002. The PI 3-K inhibitors of the present invention also show enhanced anti-proliferative activity when combined with other cancer drugs, for example paclitaxel or doxorubicin.

The mark [2] stands for this setting: OVCAR-3, 48 hours, MTT, DMSO alone controls = 100% viability, Trial 1, read-out: Trial 1 OVCAR3 (viability).
The mark [3] stands for this setting: OVCAR-3, 48 hours, MTT, DMSO alone controls = 100% viability, Trial 2, read-out: Trial 2 OVCAR3 (viability).
Where [4] appears, read: OVCAR-3, average of Trial 1 and Trial 2, 48 hours, read-out: average OVCAR-3 (viability).
The mark [5] stands for this setting: SK-OV-3, 48 hours, MTT, DMSO alone controls = 100% viability, Trial 1, read-out: Trial 1 SKOV-3 (viability).
The mark [6] stands for this setting: SK-OV-3, 48 hours, MTT, DMSO alone controls = 100% viability, Trial 2, read-out: Trial 2 SKOV-3 (viability).
Setting [7] is: SK-OV-3, average of Trial 1 and Trial 2, 48 hours, read-out: Average SKOV3 (viability).

A word on the viability: it is the share of living cells, or the viability signal relative to a control. Take `CCOc1ccc(C2C3=C(CC(C)(C)CC3=O)Nc3c2c(C(C)(C)C)nn3C(C)(C)C)cc1` (stereo not drawn) [Compound 963977]: the viability at 1 µM with OVCAR3 cells (setting [2]) worked out at 41%; in the assay with OVCAR3 cells (setting [3]), 59.6%; with OVCAR3 cells (setting [4]), 50.3%; in the assay on SKOV3 cells (setting [5]) it was 98%; with SKOV3 cells (setting [6]), 81.7%; in the assay on SKOV3 cells (setting [7]), 89.8%.

For the compound `Cc1ccc(C2C3=C(CC(C)(C)CC3=O)Nc3c2c(C(C)(C)C)nn3-c2cccc(F)c2)cc1` (stereo not drawn) [Compound 964352], the viability at 1 µM in the assay on OVCAR3 cells (setting [2]) turned out to be 33%; in the assay with OVCAR3 cells (setting [3]) it was 52.9%; in the assay on OVCAR3 cells (setting [4]), 43%; with SKOV3 cells (setting [5]) it was 93%; with SKOV3 cells (setting [6]), 74%; in the assay with SKOV3 cells (setting [7]), 83.5%. In addition, the “Anti-proliferative effects on tumor cells altered in PI 3-K/PTEN” value (from here on “Anti-proliferative effects”) in assay [1] is “Yes”. In addition, the IC50 in assay [1] was under 20 µM.

`Cc1cccc(-n2nc(C(C)(C)C)c3c2NC2=C(C(=O)CC(C)(C)C2)C3c2ccc(C(C)(C)C)cc2)c1C` (stereo not drawn) [Compound 964336]: the viability at 1 µM was found to be 32% in the assay with OVCAR3 cells (setting [2]); 56% with OVCAR3 cells (setting [3]); 44% in the assay on OVCAR3 cells (setting [4]); 96% in the assay with SKOV3 cells (setting [5]); 83% in the assay on SKOV3 cells (setting [6]); 89.5% with SKOV3 cells (setting [7]). In addition, in assay [1], the “Anti-proliferative effects” value is “Yes”. Moreover, the IC50 in assay [1] is under 20 µM.

For the compound `COc1cc(OC)cc(C2C3=C(CC(C)(C)CC3=O)Nc3c2c(C(C)(C)C)nn3-c2ccc(Cl)cc2)c1` (stereo not drawn) [Compound 964144], the viability at 1 µM in the assay with OVCAR3 cells (setting [2]) is 54%; in the assay with OVCAR3 cells (setting [3]) it was 66.2%; in the assay with OVCAR3 cells (setting [4]) it was 60.1%; in the assay on SKOV3 cells (setting [5]), 100%; in the assay on SKOV3 cells (setting [6]), 100%; in the assay on SKOV3 cells (setting [7]), 100%. The “Anti-proliferative effects” value in assay [1] is given as “Yes”. Besides, in assay [1], the IC50 was under 20 µM.

For the compound `O=c1c(O)c(-c2ccc(O)c(O)c2)oc2cc(O)cc(O)c12` [quercetin], the IC50 with PI 3-K was 3.8 µM.

As to `CC1(C)CC(=O)C2=C(C1)Nc1c(c(-c3ccccc3)nn1-c1ccc(F)cc1)C2c1ccc(C(C)(C)C)cc1` (stereo not drawn) [Compound 963924], the viability at 1 µM came to 61% in the assay on OVCAR3 cells (setting [2]); 66.4% with OVCAR3 cells (setting [3]); 63.7% in the assay on OVCAR3 cells (setting [4]); 100% with SKOV3 cells (setting [5]); 100% with SKOV3 cells (setting [6]); 100% in the assay on SKOV3 cells (setting [7]). For the same compound, the “Anti-proliferative effects” value in assay [1] is given as “Yes”. In assay [1], the IC50 was under 20 µM.

On to `CCOc1ccc(C2C3=C(CC(C)(C)CC3=O)Nc3c2c(C(C)(C)C)nn3-c2ccc(Cl)cc2)cc1` (stereo not drawn) [Compound 964127], for which the viability at 1 µM with OVCAR3 cells (setting [2]) came to 42%; in the assay on OVCAR3 cells (setting [3]), 76.2%; with OVCAR3 cells (setting [4]), 59.1%; with SKOV3 cells (setting [5]), 100%; in the assay on SKOV3 cells (setting [6]), 100%; in the assay on SKOV3 cells (setting [7]) it was 100%. Also, in assay [1], the “Anti-proliferative effects” value is on record as “Yes”. For the same compound, in assay [1], the IC50 was under 20 µM.

Turning to `O=c1cc(N2CCOCC2)oc2c(-c3ccccc3)cccc12` [LY294002, reference compound], the cytotoxicity at 1 µM with MA-MB-468 cells (Concentration 1 μM) is under 5%. Moreover, the cytotoxicity at 5 µM in the assay with MA-MB-468 cells (Concentration 5 μM) is 50%. In the assay on MA-MB-468 cells (Concentration 10 μM), the cytotoxicity at 10 µM worked out at 60%. Also, the cytotoxicity at 50 µM in the assay with MA-MB-468 cells (Concentration 50 μM) was 90%.
